Source: PMC9395382 (2022)

What was measured:
[1] = test system: dsDNA (DNA, duplex) CGCGGCGTACAGTGATCTACCATGCCCTGG/CCAGGGCATGGTAGATCACTGTACGCCGCG; experiment: fluorescence enhancement; conditions: Na+ (10 mM sodium phosphate), pH 7.0, 25 °C, dye 2 μM, DNA 1 μM
[2] = test system: dsDNA (DNA, duplex) CGCGGCGTACAGTGATCTACCATGCCCTGG/CCAGGGCATGGTAGATCACTGTACGCCGCG; experiment: fluorescence titration, modified McGhee-von Hippel fit; conditions: Na+ (10 mM sodium phosphate), pH 7.0, dye 2 μM, DNA in bp, per base
[3] = test system: d(AT)10 (DNA, duplex) ATATATATATATATATATAT; experiment: fluorescent indicator displacement; conditions: Na+ (10 mM sodium phosphate); pH 7.0, 25 °C; DAPI displaced; DNA 20 μM bp; dye 0.5–50 μM
[4] = test system: d(GC)10 (DNA, duplex) GCGCGCGCGCGCGCGCGCGC; experiment: fluorescent indicator displacement; conditions: Na+ (10 mM sodium phosphate); pH 7.0, 25 °C; EtBr displaced; DNA 20 μM bp; dye 0.5–50 μM

| SMILES | binding [3] | binding [4] | other results |
| --- | --- | --- | --- |
| CCN(CC)c1ccc(/C=C/c2cc[n+](C)cc2)c(OCCC[N+](C)(C)C)c1 |  |  | binding ([1]; F/F0 54.8): yes |
| CCN(CC)c1ccc(/C=C/c2cc[n+](C)cc2)cc1 | yes |  | Kb ([2]; n = 4.4 bp per dye): 10000 M⁻¹ |
| CCN(CC)c1ccc(/C=C/c2sc3ccccc3[n+]2C)cc1 | yes | yes | Kb ([2]; n = 2.5 bp per dye): 35000 M⁻¹ |
| CCN(CC)c1ccc(/C=C/c2cc[n+](C)cc2)c(OCCCC[N+](C)(C)C)c1 | yes |  | Kb ([2]; n = 4.0 bp per dye): 141000 M⁻¹ |
| CCN(CC)c1ccc(/C=C/c2cc[n+](C)cc2)c(OCC[N+](C)(C)C)c1 |  |  | binding ([1]; F/F0 60.5): yes |
| CCN(CC)c1ccc(/C=C/c2cc[n+](C)c3ccccc23)cc1 | yes | yes | Kb ([2]; n = 2.8 bp per dye): 70000 M⁻¹ |

Further lines, with some results ahead:

| binding [3] | binding [4] | SMILES | other results |
| --- | --- | --- | --- |
| yes | yes | CCN(CC)c1ccc(/C=C/c2cc[n+](C)c3ccccc23)c(OCCCC[N+](C)(C)C)c1 | Kb ([2]; n = 2.1 bp per dye): 245000 M⁻¹ |
| yes | yes | CCN(CC)c1ccc(/C=C/c2sc3ccccc3[n+]2C)c(OCCCC[N+](C)(C)C)c1 | Kb ([2]; n = 2.5 bp per dye): 121000 M⁻¹ |
| yes | yes | COc1ccc(/C=C/c2sc3ccccc3[n+]2C)c(OCCCC[N+](C)(C)C)c1 | binding ([1]; F/F0 10.9): yes |
